Data: patent US8748417B2, “Amino-pyrrolidine-azetidine diamides as monoacylglycerol lipase inhibitors” (Janssen Pharmaceutica, NV, priority 2010, dated 2014)

Experiments:
[1] = biological target: T1, purified wild type MGL (wt-MGLL 6H-11-313) (Homo sapiens, UniProt Q99685); experiment: MGL enzyme activity assay (4MU-B cleavage), wild type MGL; format: biochemical; settings: wild type MGL 5 nM, 4MU-B 10 μM, 37° C.; read-out: MGL wild type inh IC50
T1 construct: purified wild type MGL (wt-MGLL 6H-11-313)
T1 sequence (Q99685 1-303): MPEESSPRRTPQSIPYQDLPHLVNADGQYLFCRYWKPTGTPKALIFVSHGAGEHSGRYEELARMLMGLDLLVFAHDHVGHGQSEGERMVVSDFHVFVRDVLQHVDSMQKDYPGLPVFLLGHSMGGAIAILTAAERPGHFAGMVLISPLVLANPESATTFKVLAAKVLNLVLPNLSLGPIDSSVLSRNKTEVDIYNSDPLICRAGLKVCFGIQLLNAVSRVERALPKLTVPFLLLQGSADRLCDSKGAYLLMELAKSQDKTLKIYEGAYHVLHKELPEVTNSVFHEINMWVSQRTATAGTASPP
Description: All rate-based assays were performed in black 384-well polypropylene PCR microplates (Abgene) in a total volume of 30 μL. Substrate 4-methylumbelliferyl butyrate (4MU-B; Sigma) and either purified mutant MGL (mut-MGLL 11-313 L179S L186S) or purified wild type MGL (wt-MGLL 6H-11-313) were diluted separately into 20 mM PIPES buffer (pH=7.0), containing 150 mM NaCl and 0.001% Tween 20. Compounds of Formula (I) were pre-dispensed (50 nL) into the assay plate using a Cartesian Hummingbird prior to adding 4MU-B (25 μL of 1.2× solution to a final concentration of 10 μM) followed by enzyme (5 μL of a 6× solution to a final concentration of 5 nM) to initiate the reaction. Final compound concentrations ranged from 17 to 0.0003 μM. The fluorescence change due to 4MU-B cleavage was monitored with excitation and emission wavelengths of 335 and 440 nm, respectively, and a bandwidth of 10 nm (Safire^2, Tecan) at 37° C. for 5 min.
The IC50 values for the following compounds were determined using Microsoft Office Excel from a fit of the equation to the concentration-response plot of the fractional activity as a function of inhibitor concentration.

[2] = test system: MGL (rat brain homogenate); experiment: 2-AG accumulation assay in rat brain homogenate; format: biochemical; settings: compound 1 μM, percent of vehicle 2-AG accumulation
Description: After a 15-min incubation time at 37° C., CaCl2 (final concentration=10 mM) was added and then incubated for 15 min at 37° C. in a total volume of 5 mL. The reactions were stopped with 6 mL organic solvent extraction solution of 2:1 chloroform/methanol. Accumulated 2-AG in the organic phase was measured by a HPLC/MS method, according to the following equation: percent vehicle=(2-AG accumulation in the presence of compound/2-AG accumulation in vehicle)×100.

Compound	IC50 [1] [nM]	Rat Brain 2AG % VehCntrl (%) @1 μM [2] [%]
Cc1c(C(=O)N2CC(N[C@H]3CCN(C(=O)c4nccs4)C3)C2)sc2ccc(Cl)cc12 [Cpd 84, (3S)-N-{1-[(5-Chloro-3-methyl-1-benzothiophen-2-yl)carbonyl]azetidin-3-yl}-1-(1,3-thiazol-2-ylcarbonyl)pyrrolidin-3-amine]	< 5	433
Cc1c(C(=O)N2CC(N[C@H]3CCN(C(=O)c4cscn4)C3)C2)sc2ccc(Cl)cc12 [Cpd 85, (3S)-N-{1-[(5-Chloro-3-methyl-1-benzothiophen-2-yl)carbonyl]azetidin-3-yl}-1-(1,3-thiazol-4-ylcarbonyl)pyrrolidin-3-amine]	48.2	335
Cc1c(C(=O)N2CC(N[C@H]3CCN(C(=O)c4nccs4)C3)C2)sc2cc(F)ccc12 [Cpd 87, (3S)-N-{1-[(6-Fluoro-3-methyl-1-benzothiophen-2-yl)carbonyl]azetidin-3-yl}-1-(1,3-thiazol-2-ylcarbonyl)pyrrolidin-3-amine]	34.1	385
Cc1c(C(=O)N2CC(N[C@H]3CCN(C(=O)c4nccs4)C3)C2)sc2ccc(-c3cccc(C(F)(F)F)c3)cc12 [Cpd 90, (3S)-N-[1-({3-Methyl-5-[3-(trifluoromethyl)phenyl]-1-benzothiophen-2-yl}carbonyl)azetidin-3-yl]-1-(1,3-thiazol-2-ylcarbonyl)pyrrolidin-3-amine]	< 5	1130
Cc1c(C(=O)N2CC(N[C@H]3CCN(C(=O)c4nccs4)C3)C2)sc2ccc(-c3ccccc3)cc12 [Cpd 92, (3S)-N-{1-[(3-Methyl-5-phenyl-1-benzothiophen-2-yl)carbonyl]azetidin-3-yl}-1-(1,3-thiazol-2-ylcarbonyl)pyrrolidin-3-amine]	< 5	624
Cc1c(C(=O)N2CC(N[C@H]3CCN(C(=O)c4ccccc4)C3)C2)sc2ccc(-c3cccc(F)c3)cc12 [Cpd 93, (3S)-N-(1-{[5-(3-Fluorophenyl)-3-methyl-1-benzothiophen-2-yl]carbonyl}azetidin-3-yl)-1-(phenylcarbonyl)pyrrolidin-3-amine]	< 5	963
Cc1c(C(=O)N2CC(N[C@H]3CCN(C(=O)c4ccccc4)C3)C2)sc2ccc(-c3ccc(F)cc3)cc12 [Cpd 94, (3S)-N-(1-{[5-(4-Fluorophenyl)-3-methyl-1-benzothiophen-2-yl]carbonyl}azetidin-3-yl)-1-(phenylcarbonyl)pyrrolidin-3-amine]	< 5	445
O=C(c1cc2ccc(-c3cccc(C(F)(F)F)c3)cc2s1)N1CC(N[C@H]2CCN(C(=O)c3nccs3)C2)C1 [Cpd 99, (3S)-1-(1,3-Thiazol-2-ylcarbonyl)-N-[1-({6-[3-(trifluoromethyl)phenyl]-1-benzothiophen-2-yl}carbonyl)azetidin-3-yl]pyrrolidin-3-amine]	< 5	644
O=C(c1cscn1)N1CC[C@H](NC2CN(C(=O)c3cc4ccc(-c5cccc(C(F)(F)F)c5)cc4s3)C2)C1 [Cpd 100, (3S)-1-(1,3-Thiazol-4-ylcarbonyl)-N-[1-({6-[3-(trifluoromethyl)phenyl]-1-benzothiophen-2-yl}carbonyl)azetidin-3-yl]pyrrolidin-3-amine]	< 5	546
O=C(c1ccc2c(-c3ccc(C(F)(F)F)cc3)c[nH]c2c1)N1CC(N[C@H]2CCN(C(=O)c3ccccc3)C2)C1 [Cpd 101, (3S)-1-(Phenylcarbonyl)-N-[1-({3-[4-(trifluoromethyl)phenyl]-1H-indol-6-yl}carbonyl)azetidin-3-yl]pyrrolidin-3-amine]	44	141

Continued, in another order:

IC50 [1] [nM]	Compound	Rat Brain 2AG % VehCntrl (%) @1 μM [2] [%]
22.2	O=C(c1ccc2c(-c3ccc(C(F)(F)F)cc3)c[nH]c2c1)N1CC(N[C@H]2CCN(C(=O)c3nccs3)C2)C1 [Cpd 104, (3S)-1-(1,3-Thiazol-2-ylcarbonyl)-N-[1-({3-[4-(trifluoromethyl)phenyl]-1H-indol-6-yl}carbonyl)azetidin-3-yl]pyrrolidin-3-amine]	195
< 5	O=C(c1ccc2c(-c3cccc(C(F)(F)F)c3)c[nH]c2c1)N1CC(N[C@H]2CCN(C(=O)c3cscn3)C2)C1 [Cpd 106, (3S)-1-(1,3-Thiazol-4-ylcarbonyl)-N-[1-({3-[3-(trifluoromethyl)phenyl]-1H-indol-6-yl}carbonyl)azetidin-3-yl]pyrrolidin-3-amine]	389
< 5	O=C(c1ccc(-c2cccc(C(F)(F)F)c2)cc1)N1CC(N[C@H]2CCN(C(=O)c3nccs3)C2)C1 [Cpd 113, (3S)-1-(1,3-Thiazol-2-ylcarbonyl)-N-(1-{[3′-(trifluoromethyl)biphenyl-4-yl]carbonyl}azetidin-3-yl)pyrrolidin-3-amine]	832
10	O=C(c1ccc(-c2ccc(C(F)(F)F)cc2)cc1)N1CC(N[C@H]2CCN(C(=O)c3nccs3)C2)C1 [Cpd 115, (3S)-1-(1,3-Thiazol-2-ylcarbonyl)-N-(1-{[4′-(trifluoromethyl)biphenyl-4-yl]carbonyl}azetidin-3-yl)pyrrolidin-3-amine]	310
< 5	O=C(c1nccs1)N1CC[C@H](NC2CN(C(=O)c3ccc(-c4cccc(C(F)(F)F)c4)cc3F)C2)C1 [Cpd 116, (3S)-N-(1-{[3-Fluoro-3′-(trifluoromethyl)biphenyl-4-yl]carbonyl}azetidin-3-yl)-1-(1,3-thiazol-2-ylcarbonyl)pyrrolidin-3-amine]	733
< 5	Cc1cc(-c2cccc(C(F)(F)F)c2)ccc1C(=O)N1CC(N[C@H]2CCN(C(=O)c3nccs3)C2)C1 [Cpd 117, (3S)-N-(1-{[3-Methyl-3′-(trifluoromethyl)biphenyl-4-yl]carbonyl}azetidin-3-yl)-1-(1,3-thiazol-2-ylcarbonyl)pyrrolidin-3-amine]	400
< 5	O=C(c1ccc2c(ccn2-c2ccc(C(F)(F)F)cc2)c1)N1CC(N[C@H]2CCN(C(=O)c3nccs3)C2)C1 [Cpd 118, (3S)-1-(1,3-Thiazol-2-ylcarbonyl)-N-[1-({1-[4-(trifluoromethyl)phenyl]-1H-indol-5-yl}carbonyl)azetidin-3-yl]pyrrolidin-3-amine]	626
48.8	O=C(c1ccc2c(ccn2-c2ncccn2)c1)N1CC(N[C@H]2CCN(C(=O)c3nccs3)C2)C1 [Cpd 119, (3S)-N-{1-[(1-Pyrimidin-2-yl-1H-indol-5-yl)carbonyl]azetidin-3-yl}-1-(1,3-thiazol-2-ylcarbonyl)pyrrolidin-3-amine]	255
59.7	O=C(c1ccccc1)N1CC[C@H](NC2CN(C(=O)c3cc4cc(-c5ccc(Cl)s5)ccc4o3)C2)C1 [Cpd 122, (3S)-N-(1-{[5-(5-Chlorothiophen-2-yl)-1-benzofuran-2-yl]carbonyl}azetidin-3-yl)-1-(phenylcarbonyl)pyrrolidin-3-amine]	152
< 5	Cc1c(C(=O)N2CC(N[C@H]3CCN(C(=O)c4cscn4)C3)C2)sc2ccc(-c3ccccc3)cc12 [Cpd 123, (3S)-N-{1-[(3-Methyl-5-phenyl-1-benzothiophen-2-yl)carbonyl]azetidin-3-yl}-1-(1,3-thiazol-4-ylcarbonyl)pyrrolidin-3-amine]	661
6	O=C(c1cscn1)N1CC[C@H](NC2CN(C(=O)c3cc4ccc(-c5ccccc5)cc4s3)C2)C1 [Cpd 124, (3S)-N-{1-[(6-Phenyl-1-benzothiophen-2-yl)carbonyl]azetidin-3-yl}-1-(1,3-thiazol-4-ylcarbonyl)pyrrolidin-3-amine]	227
< 5	O=C(c1ccc(Cc2cccc(C(F)(F)F)c2)cc1)N1CC(N[C@H]2CCN(C(=O)c3ccccc3)C2)C1 [Cpd 126, (3S)-1-(Phenylcarbonyl)-N-[1-({4-[3-(trifluoromethyl)benzyl]phenyl}carbonyl)azetidin-3-yl]pyrrolidin-3-amine]	715
